From patent US4294832A, “Tetrahydroisoquinoline compounds and a pharmaceutical composition thereof” (Tanabe Seiyaku Co., Ltd., priority 1979, dated 1981)
Several values for one entry are separate records, joined by “and”; a condition that tells them apart may be missing. Equal values may be shown once. Where a name gives a salt, the structure may show the parent alone. Read-outs that look alike come from different tables or passages of the source.

Key:
[1] = tested on: angiotensin-converting enzyme (ACE); assay: ACE-inhibitory activity in vivo (pressor response to angiotensin I in anesthetized normotensive rats); set-up: species or system rat; settings: 0.1 mg/kg i.v.; for Duration of activity: ACE inhibition in vivo; for ACE-inhibitory activity in vivo: percentage inhibition of ACE activity, angiotensin I 300 ng/kg i.v.
Method: ACE-inhibitory activity in vivo:
Normotensive rats weighing 300-400 g were anesthetized with urethane (1.5 g/kg, s.c.), and angiotensin I (300 ng/kg) was injected into the femoral vein of the rats. The pressor response to angiotensin I was measured with a pressure transducer connected to the carotid artery. Then, a test compound was injected intravenously thereto at a dose of 0.1 mg/kg, and angiotensin I (300 ng/kg) was further injected intravenously at intervals. The ACE-inhibitory activity of the test compound was estimated from the pressur responses to angiotensin I which were obtained before and after intravenous injection of the test compound.
*percentage inhibition of ACE activity in vivo

[2] = biological target: T1, angiotensin-converting enzyme (ACE) isolated from pig's renal cortex (Sus scrofa, UniProt F1RRW5); assay: ACE-inhibitory activity in vitro (histidyl-leucine released from hippuryl-histidyl-leucine); assay type: biochemical
T1 construct: isolated from pig's renal cortex; from tissue; host or cells: pig renal cortex
T1 sequence (F1RRW5 34-1309): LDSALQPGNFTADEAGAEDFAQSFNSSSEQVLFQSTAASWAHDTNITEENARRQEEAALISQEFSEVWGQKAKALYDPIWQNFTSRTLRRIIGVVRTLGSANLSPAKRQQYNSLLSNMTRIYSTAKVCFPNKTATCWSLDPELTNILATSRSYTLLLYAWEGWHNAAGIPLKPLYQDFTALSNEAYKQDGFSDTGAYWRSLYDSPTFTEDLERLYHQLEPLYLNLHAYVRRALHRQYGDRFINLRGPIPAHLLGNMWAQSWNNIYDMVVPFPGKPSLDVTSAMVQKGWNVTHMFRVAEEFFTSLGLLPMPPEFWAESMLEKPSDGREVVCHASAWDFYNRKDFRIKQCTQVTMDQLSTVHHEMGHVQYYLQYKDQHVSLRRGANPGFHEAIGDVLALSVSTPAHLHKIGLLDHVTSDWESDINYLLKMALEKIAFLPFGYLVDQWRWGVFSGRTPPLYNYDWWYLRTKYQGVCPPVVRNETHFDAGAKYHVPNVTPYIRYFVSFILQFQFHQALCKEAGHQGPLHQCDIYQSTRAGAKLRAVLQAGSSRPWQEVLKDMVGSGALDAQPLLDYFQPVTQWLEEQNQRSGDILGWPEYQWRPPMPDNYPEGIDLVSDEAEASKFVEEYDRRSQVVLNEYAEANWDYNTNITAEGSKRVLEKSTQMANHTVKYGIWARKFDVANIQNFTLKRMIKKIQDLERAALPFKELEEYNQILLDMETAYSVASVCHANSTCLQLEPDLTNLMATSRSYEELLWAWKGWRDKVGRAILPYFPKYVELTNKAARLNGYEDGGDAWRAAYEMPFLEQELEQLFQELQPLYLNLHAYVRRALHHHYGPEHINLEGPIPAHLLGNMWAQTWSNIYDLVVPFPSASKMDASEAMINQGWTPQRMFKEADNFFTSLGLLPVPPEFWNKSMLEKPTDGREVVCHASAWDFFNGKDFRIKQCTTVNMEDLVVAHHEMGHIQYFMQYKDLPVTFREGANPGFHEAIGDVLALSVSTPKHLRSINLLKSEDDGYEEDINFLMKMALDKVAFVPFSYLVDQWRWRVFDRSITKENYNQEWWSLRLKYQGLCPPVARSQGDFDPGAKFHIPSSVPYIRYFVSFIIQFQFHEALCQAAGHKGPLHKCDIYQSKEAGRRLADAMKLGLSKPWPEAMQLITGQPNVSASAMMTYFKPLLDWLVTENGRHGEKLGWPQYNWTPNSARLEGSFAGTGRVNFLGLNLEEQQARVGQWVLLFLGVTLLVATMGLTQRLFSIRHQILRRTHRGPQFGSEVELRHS
Method: ACE-inhibitory activity in vitro:
50 μl of a solution containing 0.01 mole/liter of hippuryl-histidyl-leucine (substrate) and 0-100 μl of a test compound solution were added to 300 μl of a 0.2M trishydrochloric acid buffer solution containing 0.2 mole/liter of sodium chloride. The total volume of said mixture was adjusted to 450 μl with water. Then, 50 μl of angiotensin -converting enzyme (ACE) isolated from pig's renal cortex were added to the mixture, and the mixture was allowed to stand at 37° C. for 20 minutes. The amount of histidyl-leucine produced from the substrate by the action of ACE was assayed microbiologically by the use of Leuconostoc mesenteroides P-60, and the ACE-inhibitory activity of the test compound was estimated therefrom.
*I50 = a dose required to induce 50% inhibition of the ACE activity

[3] = tested on: spontaneously hypertensive rats (SHR); assay: Hypotensive activity in SHR (systolic blood pressure, tail plethysmographic technique); assay type: in vivo, rat; settings: 50 mg/kg orally; for Decrease in blood pressure (-Δ mm Hg): SHR fasted overnight, systolic; for Duration of action: hypotensive action, SHR
Method: Hypotensive activity in SHR:
A test compound (dose: 50 mg/kg) suspended in an aqueous carboxymethylcellulose solution was administered orally to spontaneously hypertensive rats (SHR) fasted overnight. The systolic blood pressure of the rats was measured by the tail plethysmographic technique (The Journal of Laboratory and Clinical Medicine 78(1971), page 957). The hypotensive activity of the test compound was estimated from the decreased level of blood pressure.

[4] = dose required to induce 50% inhibition of the ACE activity, pig renal cortex ACE, 37° C., 20 minutes, read-out: ACE-inhibitory activity in vitro I50

CCOC(=O)CCN(CC)C(=O)N1Cc2ccccc2C[C@H]1C(=O)O [3(S)-2-[N-ethyl-N-(2-ethoxycarbonylethyl)carbamoyl]-1,2,3,4-tetrahydroisoquinoline-3-carboxylic acid L-lysine salt] was tested. Which Duration of activity [1] did it give?
The Duration of activity was greater than 60 min.

What about the “ACE-inhibitory activity in vivo” value [1] of the same molecule?
The value was greater than 60%.

Which results are given for CCCCOC(=O)CCN(CC)C(=O)N1Cc2ccccc2C[C@H]1C(=O)O [3(S)-2-[N-ethyl-N-(2-n-butoxycarbonylethyl)carbamoyl]-1,2,3,4-tetrahydroisoquinoline-3-carboxylic acid L-lysine salt]?
Duration of activity [1]: > 60 min; ACE-inhibitory activity in vivo ([1]; 0.1 mg/kg): 80% and > 60%

How did the Duration of activity ([1]; sodium salt, 0.1 mg/kg) turn out when COC(=O)CCN(C(=O)N1Cc2ccccc2C[C@H]1C(=O)O)C(C)C [3(S)-2-[N-isopropyl-N-(2-methoxycarbonylethyl)carbamoyl]-1,2,3,4-tetrahydroisoquinoline-3-carboxylic acid sodium salt] was run?
Its Duration of activity is greater than 60 min.

Which IC50 [2, 4] does the source give for O=C(O)CCN(C(=O)N1Cc2ccccc2C[C@H]1C(=O)O)C1CC1 [3(S)-2-[N-cyclopropyl-N-(2-carboxyethyl)-carbamoyl]-1,2,3,4-tetrahydroisoquinoline-3-carboxylic acid di-dicyclohexylamine salt] here?
Its IC50 is 140 nM.

How did the Duration of activity [1] turn out when CC(C)N(CCC(=O)O)C(=O)N1Cc2ccccc2C[C@H]1C(=O)O [3(S)-2-[N-isopropyl-N-(2-carboxyethyl)carbamoyl]-1,2,3,4-tetrahydroisoquinoline-3-carboxylic acid di-dicyclohexylamine salt] was run?
Its Duration of activity is greater than 60 min.

What about the “ACE-inhibitory activity in vivo” value [1] of the same molecule?
The value was greater than 60%.

C=CCN(CCC(=O)O)C(=O)N1Cc2ccccc2C[C@H]1C(=O)O [3(S)-2-[N-allyl-N-(2-carboxyethyl)carbamoyl]-1,2,3,4-tetrahydroisoquinoline-3-carboxylic acid di-L-lysine salt] was tested. Which IC50 [2, 4] did it give?
The IC50 was 140 nM.

With COC(=O)CCN(C(=O)N1Cc2ccccc2C[C@H]1C(=O)O)C(C)C [3(S)-2-[N-isopropyl-N-(2-methoxycarbonylethyl)carbamoyl]-1,2,3,4-tetrahydroisoquinoline-3-carboxylic acid L-lysine salt] as the molecule, how does the Duration of activity ([1]; 0.1 mg/kg) read?
Its Duration of activity is 30 to 60 min.

What about the “ACE-inhibitory activity in vivo” value [1] of the same molecule?
The value was 40 - 60%.

And the “Decrease in blood pressure (-Δ mm Hg)” value [3]?
Its value is 36 mm Hg.

What about the Duration of action [3] of the same molecule?
Its Duration of action is greater than 6 h.

With CN(CCC(=O)O)C(=O)N1Cc2ccccc2C[C@H]1C(=O)O [3(S)-2-[N-methyl-N-(2-carboxyethyl)carbamoyl]-1,2,3,4-tetrahydroisoquinoline-3-carboxylic acid 2 dicyclohexylamine salt] as the molecule, how does the IC50 [2, 4] read?
Its IC50 is 610 nM.

What does the source list for CCN(CCC(=O)O)C(=O)N1Cc2ccccc2C[C@H]1C(=O)O [3(S)-2-[N-ethyl-N-(2-carboxyethyl)carbamoyl]-1,2,3,4-tetrahydroisoquinoline-3-carboxylic acid calcium salt]?
IC50 [2, 4]: 11 nM; IC50 ([2]; in vitro, ACE isolated from pig's kidney, read-out: 50% inhibition of the activity of the enzyme at a concentration of): ~11 nM

Which IC50 [2, 4] does the source give for C#CCN(CCC(=O)O)C(=O)N1Cc2ccccc2C[C@H]1C(=O)O [3(S)-2-[N-propargyl-N -(2-carboxyethyl)carbamoyl]-1,2,3,4-tetrahydroisoquinoline-3-carboxylic acid di-L-lysine salt] here?
Its IC50 is 35 nM.

Which IC50 [2, 4] does the source give for CCN(CCC(=O)O)C(=O)N1Cc2ccccc2C[C@H]1C(=O)O [3(S)-2-[N-ethyl-N-2-carboxyethyl)carbamoyl]-1,2,3,4-tetrahydroisoquinoline-3-carboxylic acid di-sodium salt] here?
Its IC50 is 21 nM.

Which Duration of activity [1] does the source give for CCCCOC(=O)CCN(C(=O)N1Cc2ccccc2C[C@H]1C(=O)O)C(C)C [3(S)-2-[N-isopropyl-N-(2-n-butoxycarbonylethyl)carbamoyl]-1,2,3,4-tetrahydroisoquinoline-3-carboxylic acid L-lysine salt] here?
Its Duration of activity is greater than 60 min.

What about the “ACE-inhibitory activity in vivo” value [1] of the same molecule?
Its value is greater than 60%.

Which Duration of activity [1] does the source give for CCOC(=O)CCN(C)C(=O)N1Cc2ccccc2C[C@H]1C(=O)O [3(S)-2-[N-methyl-N-(2-ethoxycarbonylethyl)carbamoyl]-1,2,3,4-tetrahydroisoquinoline-3-carboxylic acid L-lysine salt] here?
The Duration of activity was greater than 60 min.

What about the “ACE-inhibitory activity in vivo” value [1] of the same molecule?
Its value is 40 - 60%.

What does the source list for CCOC(=O)CCN(CC)C(=O)N1Cc2ccccc2C[C@H]1C(=O)O [3(S)-2-[N-ethyl-N-(2-ethoxycarbonylethyl)carbamoyl]-1,2,3,4-tetrahydroisoquinoline-3-carboxylic acid 1/2 calcium salt]?
Decrease in blood pressure (-Δ mm Hg) [3]: 26 mm Hg; Duration of action [3]: > 6 h

For CCOC(=O)CCN(CC)C(=O)N1Cc2ccccc2C[C@H]1C(=O)O.NCCCC[C@H](N)C(=O)O [3(S)-2-[N-ethyl-N-(2-n-ethoxycarbonylethyl)carbamoyl]-1,2,3,4-tetrahydroisoquinoline-3-carboxyleic acid L-lysine salt], which “Decrease in blood pressure (-Δ mm Hg)” value [3] is on record?
The value was 25 mm Hg.

And the Duration of action [3]?
The Duration of action was greater than 6 h.

With CCCN(CCC(=O)O)C(=O)N1Cc2ccccc2C[C@H]1C(=O)O [3(S)-2-[N-n-propyl-N-(2-carboxyethyl)carbamoyl]-1,2,3,4-tetrahydroisoquinoline-3-carboxylic acid 2 dicyclohexylamine salt] as the molecule, how does the IC50 [2, 4] read?
The IC50 was 550 nM.

For CCOC(=O)CCN(C(=O)N1Cc2ccccc2C[C@H]1C(=O)O)C(C)C [3(S)-2-[N-isopropyl-N-(2-ethoxycarbonylethyl)carbamoyl]-1,2,3,4-tetrahydroisoquinoline-3-carboxylic acid L-lysine salt], which Duration of activity [1] is on record?
Its Duration of activity is greater than 60 min.

What about the “ACE-inhibitory activity in vivo” value [1] of the same molecule?
Its value is greater than 60%.

How did the IC50 [2, 4] turn out when CC(C)N(CCC(=O)O)C(=O)N1Cc2ccccc2C[C@H]1C(=O)O [3(S)-2-[N-isopropyl-N-(2-carboxyethyl)carbamonyl]-1,2,3,4-tetrahydroisoquinoline-3-carboxylic acid di-L-lysine salt] was run?
The IC50 was 29 nM.
